PubChem BioAssay AID190 (DTP/NCI, 2004)
Several values for one entry are separate records, joined by “and”; a condition that tells them apart may be missing. Equal entries are not always repeated. Inconclusive results and toxic doses are left out. Rule for the calls: active = survival T/C of 150% or more; inactive = T/C below 125% in these data.

Tested on: AKR/Lw mice, AKR lymphoma ip, median survival T/C
Assay: NCI In Vivo Anticancer Drug Screen. Data for tumor model Lymphoma AKR (Transplanted) (intraperitoneal) in AKR/Lw mice
Conditions: endpoint: median survival time, higher = longer survival
Procedure: The antitumor activity of compounds was measured in mice bearing transplantable tumors. Survival or tumor size were measured and the results are expressed as the measurement made in the treated group (T) divided by the measurement made in the vehicle treated control group (C). The tumor model used in this assay is Lymphoma AKR (Transplanted) (intraperitoneal) in AKR/Lw mice

[1] = dose: 50.0 mg/kg/injection, schedule: Q04DX003 (ip), vehicle: Klucel (hydroxypropylcellulose) (HPC)
[2] = dose: 100.0 mg/kg/injection, schedule: Q01DX001 (ip), vehicle: Klucel (hydroxypropylcellulose) (HPC)
[3] = dose: 100.0 mg/kg/injection, schedule: Q04DX003 (ip), vehicle: Klucel (hydroxypropylcellulose) (HPC)
[4] = dose: 200.0 mg/kg/injection, schedule: Q01DX001 (ip), vehicle: Klucel (hydroxypropylcellulose) (HPC)
[5] = dose: 400.0 mg/kg/injection, schedule: Q01DX001 (ip), vehicle: Klucel (hydroxypropylcellulose) (HPC)

Measured: T/C

COc1cccc2c1C(=O)c1c(O)c3c(c(O)c1C2=O)C[C@@](O)(C(=O)CO)C[C@@H]3OC1CC(N)C(O)C(C)O1 (some centres undefined)
inactive: dose: 0.12 mg/kg/injection, schedule: Q01DX006 (sc), vehicle: saline 110 % of control | dose: 0.25 mg/kg/injection, schedule: Q01DX006 (ip), vehicle: saline 107 % of control | dose: 0.25 mg/kg/injection, schedule: Q01DX006 (sc), vehicle: saline 97 % of control | dose: 0.5 mg/kg/injection, schedule: Q01DX006 (ip), vehicle: saline 115 % of control | dose: 0.5 mg/kg/injection, schedule: Q01DX006 (sc), vehicle: saline 109 % of control (2×) and 110 % of control | dose: 0.5 mg/kg/injection, schedule: Q04DX003 (sc), vehicle: saline 105 % of control | dose: 0.9 mg/kg/injection, schedule: Q04DX003 (sc), vehicle: saline 105 % of control | dose: 1.0 mg/kg/injection, schedule: Q01DX006 (ip), vehicle: saline 115 % of control | dose: 1.0 mg/kg/injection, schedule: Q01DX006 (sc), vehicle: saline 117 % of control | dose: 1.5 mg/kg/injection, schedule: Q01DX006 (sc), vehicle: saline 110 % of control and 114 % of control (2×) | dose: 2.6 mg/kg/injection, schedule: Q04DX003 (sc), vehicle: saline 97 % of control

CC(=O)N1C(=O)C2(c3ccccc31)c1cccc3c1C(=C1C(=O)OC(=O)C12)C(=O)N3C(C)=O (centres undefined)
inactive: dose: 200.0 mg/kg/injection, schedule: Q01DX001 (ip), vehicle: saline 86 % of control | dose: 400.0 mg/kg/injection, schedule: Q01DX001 (ip), vehicle: saline 91 % of control

CC(C)(CCCl)NCc1ccccc1
inactive: dose: 100.0 mg/kg/injection, schedule: Q01DX001 (ip), vehicle: saline 102 % of control

Nc1ccc(OCc2ccc(S(=O)(=O)F)c(Cl)c2)c(Cl)c1
inactive: [1] 88 % of control | [2] 87 % of control | [3] 86 % of control | dose: 150.0 mg/kg/injection, schedule: Q01DX009 (ip), vehicle: Klucel (hydroxypropylcellulose) (HPC) 112 % of control | [4] 90 % of control | dose: 200.0 mg/kg/injection, schedule: Q04DX003 (ip), vehicle: Klucel (hydroxypropylcellulose) (HPC) 111 % of control

CCOC(=O)C1OC12CCCCC2 (centres undefined)
inactive: [2] 96 % of control | [4] 92 % of control | [5] 100 % of control

Clc1nnc(Nc2ccccc2)c2ccccc12
inactive: dose: 25.0 mg/kg/injection, schedule: Q04DX003 (ip), vehicle: Klucel (hydroxypropylcellulose) (HPC) 86 % of control | [1] 98 % of control | [2] 92 % of control | [3] 92 % of control | dose: 100.0 mg/kg/injection, schedule: Q04DX003 (ip), vehicle: saline 100 % of control | [4] 96 % of control | [5] 96 % of control

CC[CH](C)[Hg][c]1cccc2ccccc12 (centres undefined)
inactive: [2] 91 % of control | [4] 86 % of control

NC(=S)N/N=C/c1ccccn1
inactive: dose: 0.12 mg/kg/injection, schedule: Q03HX032 (ip), vehicle: saline with Tween-80 122 % of control | dose: 0.25 mg/kg/injection, schedule: Q03HX032 (ip), vehicle: saline with Tween-80 113 % of control | dose: 0.5 mg/kg/injection, schedule: Q03HX032 (ip), vehicle: saline with Tween-80 122 % of control | dose: 1.0 mg/kg/injection, schedule: Q03HX032 (ip), vehicle: saline with Tween-80 114 % of control | dose: 1.25 mg/kg/injection, schedule: Q01DX009 (ip), vehicle: saline with Tween-80 96 % of control | dose: 2.0 mg/kg/injection, schedule: Q04DX003 (ip), vehicle: saline with Tween-80 103 % of control | dose: 3.5 mg/kg/injection, schedule: Q04DX003 (ip), vehicle: saline with Tween-80 96 % of control | dose: 4.0 mg/kg/injection, schedule: Q04DX003 (ip), vehicle: saline with Tween-80 116 % of control | dose: 5.0 mg/kg/injection, schedule: Q01DX009 (ip), vehicle: saline with Tween-80 94 % of control | dose: 5.3 mg/kg/injection, schedule: Q04DX003 (ip), vehicle: saline with Tween-80 106 % of control | dose: 8.0 mg/kg/injection, schedule: Q04DX003 (ip), vehicle: saline with Tween-80 109 % of control | dose: 13.0 mg/kg/injection, schedule: Q04DX003 (ip), vehicle: saline with Tween-80 112 % of control

CC(=O)c1ccc2ccccc2c1O
inactive: dose: 25.0 mg/kg/injection, schedule: Q01DX001 (ip), vehicle: Klucel (hydroxypropylcellulose) (HPC) 102 % of control | dose: 50.0 mg/kg/injection, schedule: Q01DX001 (ip), vehicle: Klucel (hydroxypropylcellulose) (HPC) 88 % of control | [4] 88 % of control | dose: 200.0 mg/kg/injection, schedule: Q01DX001 (ip), vehicle: other 104 % of control | dose: 400.0 mg/kg/injection, schedule: Q01DX001 (ip), vehicle: other 111 % of control
